Article PMC6222847, “Application of HPCCC Combined with Polymeric Resins and HPLC for the Separation of Cyclic Lipopeptides Muscotoxins A–C and Their Antimicrobial Activity” (Molecules : A Journal of Synthetic Chemistry and Natural …, 2018)
Values after ≈ are worked out from the molar mass of the structure shown. *1 amine or outer side, *2 acyl side, *3 side chain or, on linkers, in order; H or OH if unused. Where a SMILES comes first, the peptide text is derived from it. [ ]: non-standard residue; d: D form. X1 = CCCCCC(O)CC(N[*:1])C(O)C(=O)[*:2]; X2 = CC1C[C@@H](C(=O)[*:2])N([*:1])C1; d(aIle) = CC[C@H](C)[C@@H](N)C(=O)O; Dhb = C/C=C(\N)C(=O)O

Key:
[1] = Partition coefficient (K) in two-phase HPCCC solvent systems; type: physicochemical; conditions: 2 mg extract in 2 mL (1 mL per phase), HPLC-ESI-HRMS
Text: When working with HPCCC, the search for a proper two-phase solvent system has been informed to represent the major part of the work involved in the HPCCC separation. An appropriate two-phase solvent system for HPCCC has to provide a good partition coefficient (0.5 ≤ K ≤ 2.5) for the target compound. […] Additionally, for achieving a good resolution between two closely eluting peaks, the separation factor (α) between the two compounds (α = K2/K1, K2 > K1) should be greater than 1.5 [14, 26]. It is well described that compounds with smaller K values show a poor resolution because they elute closer to the solvent front. On the contrary, those compounds with larger K value are better separated but elute as wider peaks and at later elution times. In the present study, the capacity of different two-phase solvent systems (Table 1) to provide suitable K values of the compounds 1–3 was investigated. The K value is frequently estimated by using HPLC with UV detection, which is calculated by dividing the peak area of the target compound in the upper phase by that of the peak area of the same target compound in the lower phase. However, given that UV chromatogram provided insufficient peak areas for minor muscotoxins, the MS detector was thus used to estimate the K values. By using this approach, the peak area of the molecular ions corresponding to the target compounds were selectively monitored from the base peak chromatogram. As presented in the Table 1, the solvent system 10 (n-hexane, ethyl acetate, ethanol, and water in a ratio of 1:5:1:5) gave suitable K values and a proper separation factor (α) for compounds 2 and 3, as well as a short settling time. […] The improvement of the K value of compound 1 could be achieved by finding out a new solvent system or by modifying the composition of the already selected solvent system. In the present study, the system 10 was acidified by adding acetic acid leading to the system 11 (n-hexane, ethyl acetate, ethanol, water, and acetic acid, 1:5:1:5:1). […] Although the partition coefficients of the target compounds in systems 10 and 11 are strongly correlated, the system 10 ensured a sufficient selectivity (α = 1.5) between the compounds 2 and 3. […] In HPCCC, it is very well established that when the retention of stationary phase is increased, a good chromatographic resolution is achieved. A reduced flow rate of the mobile phase and a high rotational speed of the column favor the retention of the stationary phase inside the HPCCC column. In this study, the flow rate of the mobile phase in the first step and second step of the HPCCC operations was 1 mL/min and the rotational speed was set at 1200 rpm. Moreover, it was observed that a good resolution between the compounds 2 and 3 was achieved when injecting 100 mg of enriched extract.
Different two-phase solvent systems were prepared using n-hexane, ethyl acetate, ethanol, water, and acetic acid in different proportions (Table 1). The prepared solvent systems were investigated for their capacity to provide suitable partition coefficients (K) of the target compounds. In addition, given that the settling time as well as the density difference between the upper and lower phases of each two-phase solvent system are parameters associated with the retention of stationary phase in the column, they were thus estimated and used as selection criteria. For estimating the partition coefficient (Table 1) of the target compound, 2 mg of extract containing the target compounds was dissolved in 2 mL of a given two-phase solvent system (1 mL per each phase). The test tube containing the sample solution was shaken vigorously, and then left, to equilibrate the two phases, for 20 min. Equal volumes of each phase were then analyzed by HPLC-ESI-HRMS to obtain the partition coefficients (K), which were calculated by dividing the peak area of the target compound in the upper phase by the peak area of compound in the lower phase.

Fusarium oxysporum = assay: microbe, parasite or virus in culture; type: cell-based; conditions: Fusarium oxysporum; F. oxysporum BCC020_2866; Muller Hinton broth with 2% glucose, 300–0.0732 µg/mL (control 32–0.0625), 30 °C 48 h, triplicate; least concentration showing any inhibition; read-out: MIC
Experimental: (§1) Furthermore, compound 1 was evaluated for its antimicrobial activity against five bacterial isolates; S. aureus (CCM3824), B. subtilis (CCM1999), S. sanguinis (CCM4047), P. aeruginosa (CCM1959), E. coli (CCM2024), and eight fungal isolates; C. friedrichii (BCC020_2879), A. fumigatus (BCC020_2845), F. oxysporum (BCC020_2866), T. harzianum (BCC020_0606), B. sorokiniana (BCC020_1571), M. cucumerina (BCC020_2872), C. globosum (BCC020_2527), and A. alternata (BCC020_0609) using broth two-fold microdilution method following the standard protocol. Briefly, for broth microdilution method, the compounds were serially diluted at varying concentrations between 300 and 0.0732 µg/mL in Mueller Hinton broth (for bacteria) and Muller Hinton broth with 2% glucose (for fungi) in 96-well plates. Culture broth (0.1 mL) was added to each well containing the compound. Plates were incubated aerobically at 37 °C for 16 h (bacteria) and 30 °C for 48 h (for fungi). Negative controls were prepared separately with respective organisms in the same culture media with methanol (the dissolving solvent). Positive controls were also prepared separately with respective organisms. Erythromycin (32–0.0625 µg/mL) was used as positive control for S. aureus and S. sanguinis, gentamycin (32–0.0625 µg/mL) was used as positive control for Bacillus subtilis, E. coli, and P. aeruginosa, whereas fluconazole (32–0.0625 µg/mL) was used as positive control for all the fungal isolates. After incubation, the well with the least concentration of the compound showing any inhibition in the growth was taken as the MIC value for the respective organisms. MIC95 was determined as the concentration required to inhibit or kill 95% of bacterial isolates spectroscopically at 600 nm. Minimum fungicidal concentration (MFCs) were determined after 48 h incubation by removing 10 µL of the contents from wells showing no visible growth and spreading them on to Sabouraud dextrose agar plates. The plates were then incubated for 72 h and MFCs were determined as the concentrations which killed 95–100% of the inoculum. All the experiments were done in triplicate.

Aspergillus fumigatus = assay: microbe, parasite or virus in culture; type: cell-based; conditions: Aspergillus fumigatus; A. fumigatus BCC020_2845; Muller Hinton broth with 2% glucose, 300–0.0732 µg/mL (control 32–0.0625), 30 °C 48 h, triplicate; least concentration showing any inhibition; read-out: MIC
Experimental: as §1

Chaetomium globosum = assay: microbe, parasite or virus in culture; type: cell-based; conditions: Chaetomium globosum; C. globosum BCC020_2527; Muller Hinton broth with 2% glucose, 300–0.0732 µg/mL (control 32–0.0625), 30 °C 48 h, triplicate; least concentration showing any inhibition; read-out: MIC
Experimental: as §1

Alternaria alternata = assay: microbe, parasite or virus in culture; type: cell-based; conditions: Alternaria alternata; A. alternata BCC020_0609; Muller Hinton broth with 2% glucose, 300–0.0732 µg/mL (control 32–0.0625), 30 °C 48 h, triplicate; least concentration showing any inhibition; read-out: MIC
Experimental: as §1

Candida friedrichii = assay: microbe, parasite or virus in culture; type: cell-based; conditions: Yamadazyma friedrichii; C. friedrichii BCC020_2879; Muller Hinton broth with 2% glucose, 300–0.0732 µg/mL (control 32–0.0625), 30 °C 48 h, triplicate; least concentration showing any inhibition; read-out: MIC
Experimental: as §1

Trichoderma harzianum = assay: microbe, parasite or virus in culture; type: cell-based; conditions: Trichoderma harzianum; T. harzianum BCC020_0606; Muller Hinton broth with 2% glucose, 300–0.0732 µg/mL (control 32–0.0625), 30 °C 48 h, triplicate; least concentration showing any inhibition; read-out: MIC
Experimental: as §1

Monographella cucumerina = assay: microbe, parasite or virus in culture; type: cell-based; conditions: Plectosphaerella cucumerina; M. cucumerina BCC020_2872; Muller Hinton broth with 2% glucose, 300–0.0732 µg/mL (control 32–0.0625), 30 °C 48 h, triplicate; least concentration showing any inhibition; read-out: MIC
Experimental: as §1

Bacillus subtilis = assay: Broth two-fold microdilution; type: cell-based; conditions: B. subtilis CCM1999; Mueller Hinton broth, 300–0.0732 µg/mL (control 32–0.0625), 37 °C 16 h, triplicate; MIC = least concentration showing any inhibition in the growth
Experimental: Furthermore, compound 1 was evaluated for its antimicrobial activity against five bacterial isolates; S. aureus (CCM3824), B. subtilis (CCM1999), S. sanguinis (CCM4047), P. aeruginosa (CCM1959), E. coli (CCM2024), and eight fungal isolates; C. friedrichii (BCC020_2879), A. fumigatus (BCC020_2845), F. oxysporum (BCC020_2866), T. harzianum (BCC020_0606), B. sorokiniana (BCC020_1571), M. cucumerina (BCC020_2872), C. globosum (BCC020_2527), and A. alternata (BCC020_0609) using broth two-fold microdilution method following the standard protocol. Briefly, for broth microdilution method, the compounds were serially diluted at varying concentrations between 300 and 0.0732 µg/mL in Mueller Hinton broth (for bacteria) and Muller Hinton broth with 2% glucose (for fungi) in 96-well plates. Culture broth (0.1 mL) was added to each well containing the compound. […] MIC95 was determined as the concentration required to inhibit or kill 95% of bacterial isolates spectroscopically at 600 nm. Minimum fungicidal concentration (MFCs) were determined after 48 h incubation by removing 10 µL of the contents from wells showing no visible growth and spreading them on to Sabouraud dextrose agar plates. The plates were then incubated for 72 h and MFCs were determined as the concentrations which killed 95–100% of the inoculum. […]

Sclerotinia sclerotiorum = assay: Disc diffusion antifungal assay; type: cell-based; conditions: S. sclerotiorum, 250–1.5625 µg/disk, Czapek-Dox medium, mycelium growth after 4 days by image analysis, triplicate
Experimental: Due to the unavailability of enough amounts of isolated compounds, the antifungal activity for all the isolated compounds (1–3) was initially tested only against plant pathogenic fungi Sclerotinia sclerotiorum by determining the minimum inhibitory concentration (MIC) using disc diffusion assay. Compounds (1–3) were dissolved in MeOH at different concentrations and further transferred (20 µL) on layer filter paper targets (size 5 mm) to get desired concentrations of 250–1.5625 µg/disk. Discs were placed at the border of Petri dish (average 35 mm) containing Czapek-Dox medium. The mycelial target of the plant pathogenic fungus S. sclerotiorum (0.5 cm in diameter) was inoculated on the opposite sites of dish. […] The growth of fungal mycelium after 4 days in the presence of the studied compounds was evaluated using digital image analysis. […] The images (TIFF format) were converted by thresholds, and the area of binary objects corresponding to size of grown mycelium was measured and evaluated by software NIS-ELEMENTS AR ver. […] The inhibition of the mycelium growth (inhibition zone in percentages) was calculated as the difference between the measurements (in px) of the total area of fungal mycelium (negative controls) and of the area that is covered with mycelium (treated dishes).

[2] = solvent system 4, n-Hex–EtOAc–EtOH–H2O 7:3:5:5, shaken, 20 min, K = peak area UP/LP
[3] = solvent system 5, n-Hex–EtOAc–EtOH–H2O 6:4:5:5, shaken, 20 min, K = peak area UP/LP
[4] = solvent system 7, n-Hex–EtOAc–EtOH–H2O 4:5:4:5, shaken, 20 min, K = peak area UP/LP
[5] = solvent system 8, n-Hex–EtOAc–EtOH–H2O 3:5:3:5, shaken, 20 min, K = peak area UP/LP
[6] = solvent system 9, n-Hex–EtOAc–EtOH–H2O 2:5:2:5, shaken, 20 min, K = peak area UP/LP
[7] = solvent system 11, n-Hex–EtOAc–EtOH–H2O–AcOH 1:5:1:5:1, shaken, 20 min, K = peak area UP/LP

In the case of C/C=C1\NC(=O)[C@H](CO)NC(=O)[C@@H]([C@@H](C)CC)NC(=O)[C@H](Cc2ccccc2)NC(=O)[C@@H]2CC(C)CN2C(=O)CNC(=O)[C@@H](CCC(N)=O)NC(=O)C(O)C(CC(O)CCCCC)NC(=O)[C@@H]2CCCN2C(=O)[C@@H]([C@@H](C)CC)NC(=O)[C@H](CO)NC1=O (stereo partly shown) [compound 3, muscotoxin B] (cyclo([Dhb]S[d(aIle)]P[X1][dQ]G[X2]F[d(aIle)]S)), the “Partition Coefficient (K) of Muscotoxins” value ([1]; solvent system 1, n-Hex–EtOH–H2O 10:5:5, shake test tube, equilibrated 20 min, K = peak area upper phase/lower phase) is reported as 0.01, the “Partition Coefficient (K) of Muscotoxins” value ([1]; solvent system 2, n-Hex–EtOAc–EtOH–H2O 9:1:5:5, shaken, 20 min, K = peak area UP/LP) is reported as 0.01 and the “Partition Coefficient (K) of Muscotoxins” value [1, 2] is reported as 0.02. The “Partition Coefficient (K) of Muscotoxins” value [1, 3] was 0.04, the “Partition Coefficient (K) of Muscotoxins” value ([1]; solvent system 6, n-Hex–EtOAc–EtOH–H2O 5:5:5:5, shaken, 20 min, K = peak area UP/LP) was 0.01 and the “Partition Coefficient (K) of Muscotoxins” value [1, 4] was 0.05. The “Partition Coefficient (K) of Muscotoxins” value [1, 5] was 0.27, the “Partition Coefficient (K) of Muscotoxins” value [1, 6] was 1.22 and the “Partition Coefficient (K) of Muscotoxins” value ([1]; solvent system 10, n-Hex–EtOAc–EtOH–H2O 1:5:1:5, shaken, 20 min, K = peak area UP/LP) was 1.41. The “Partition Coefficient (K) of Muscotoxins” value [1, 7] was 2.45.

OC(Cn1cncn1)(Cn1cncn1)c1ccc(F)cc1F [fluconazole, reference compound] showed an MIC (Fusarium oxysporum) of 8 µg/mL (≈ 26.1 µM), an MIC (Aspergillus fumigatus) of 32 µg/mL (≈ 104 µM) and an MIC (Chaetomium globosum) of 2 µg/mL (≈ 6.53 µM). It also gave an MIC (Alternaria alternata) of 2 µg/mL (≈ 6.53 µM), an MIC (Candida friedrichii) of 8 µg/mL (≈ 26.1 µM) and an MIC (Trichoderma harzianum) of 4 µg/mL (≈ 13.1 µM). It also gave an MIC (Monographella cucumerina) of 2 µg/mL (≈ 6.53 µM).

gentamycin [reference compound] showed an MIC (Bacillus subtilis) of 4 µg/mL.

For muscotoxin C [compound 1], the “lowest dose to manifest its activity” value (Sclerotinia sclerotiorum) was > 250 µg, the “Partition Coefficient (K) of Muscotoxins” value [1, 2] was 0.01 and the “Partition Coefficient (K) of Muscotoxins” value [1, 3] was 0.01. For the same compound, the “Partition Coefficient (K) of Muscotoxins” value [1, 4] was 0.02, the “Partition Coefficient (K) of Muscotoxins” value [1, 5] was 0.08 and the “Partition Coefficient (K) of Muscotoxins” value [1, 6] was 0.40. For the same compound, the “Partition Coefficient (K) of Muscotoxins” value [1, 7] was 1.09.
